Patent publication US5112845A, “Alpha-heterocycle substituted tolunitriles” (Ciba-Geigy Corporation, priority 1990, dated 1992)
Where a name gives a salt, the structure may show the parent alone. Read-outs that look alike come from different tables or passages of the source.

Key:
[1] = tested on: dimethylbenzanthracene (DMBA)-induced mammary tumors; assay: antitumor activity in DMBA-induced mammary tumors in rats; type: in vivo, female Sprague-Dawley rats; details: Rattus norvegicus, po, read-out: effective daily dose (antitumor)
Excerpt: Exp. Biol. Med. 160, 296-301 (1979)].

female rats = assay: in vivo antifertility property (implantation and/or fetal resorption) in rats; parameters: species or system rat (Sprague Dawley); details: Rattus norvegicus, po, administered as the fumarate or hemisuccinate salt, read-out: dose at which fertility is inhibited
Experimental: Mated female rats (Sprague Dawley) weighing approximately 180-200 g were obtained on the day of coitus. The presence of sperm in the vagina was used as a verification that mating had occurred. On the day of receipt, day of coitus or day 0 of `pregnancy`, the rats are divided into two groups of six to eight rats per group. One group is given various doses of the test compound p.o., suspended in 0.2 ml of carboxymethylcellulose (CMC) beginning on day 1 of `pregnancy` and continuing through day 9 of `pregnancy`. These same rats receive a daily injection of 0.1 ml of sesame oil s.c. over this same time frame. The second group of rats receive the vehicles, CMC p.o. and oil s.c., on days 1-9 of `pregnancy`. All of the rats are sacrificed on day 12 or 13 of `pregnancy`, and their uteri are exposed and examined for fetuses and/or resorption sites.

aromatase = molecular target: T1, aromatase (Homo sapiens, UniProt P11511); assay: in vitro inhibition of aromatase activity (human placental microsomes, aromatization of [1,2-^3 H]-androstenedione); type: biochemical; details: 20 minutes at 37° C
T1 construct: A microsomal fraction is prepared from human placenta by the method essentially as described by Thompson and Siiteri; from tissue; host or cells: human placenta, microsomal fraction (lyophilized)
T1 sequence (P11511 1-503): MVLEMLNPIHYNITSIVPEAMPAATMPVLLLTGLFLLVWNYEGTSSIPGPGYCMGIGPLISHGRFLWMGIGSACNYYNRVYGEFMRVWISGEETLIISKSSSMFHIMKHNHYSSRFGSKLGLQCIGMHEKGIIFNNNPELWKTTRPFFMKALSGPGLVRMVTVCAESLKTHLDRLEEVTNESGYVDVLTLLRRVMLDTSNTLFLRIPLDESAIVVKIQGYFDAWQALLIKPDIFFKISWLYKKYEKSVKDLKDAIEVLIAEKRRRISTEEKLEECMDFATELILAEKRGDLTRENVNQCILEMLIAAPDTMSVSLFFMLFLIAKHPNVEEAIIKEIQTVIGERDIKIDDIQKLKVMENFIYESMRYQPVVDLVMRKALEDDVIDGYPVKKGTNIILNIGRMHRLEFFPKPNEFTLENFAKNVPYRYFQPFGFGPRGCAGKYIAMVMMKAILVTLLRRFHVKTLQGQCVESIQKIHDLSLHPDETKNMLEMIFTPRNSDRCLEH
Experimental: The microsomal preparation so obtained is lyophilized and stored at -40° C.
The assay is conducted substantially as described by Thompson and Siiteri. The human placental microsomes are added to [1,2-^3 H]-androstenedioneand incubated for 20 minutes at 37° C. The amount of aromatization of the labelled substrate is detected by the […] of ^3 H2 O into the incubation medium. The substrate is removed by chloroform extraction, followed by adsorption to charcoal in suspension. The charcoal is removed by centrifugation and the steroid-free medium is counted in a liquid scintillation counter. Compounds are tested for aromatase inhibitory activity by adding them to the incubation medium prior to the addition of the microsomes. The relative cpm obtained with and without the inhibitor is used to calculate the percent inhibition of the aromatization of androstenedione to estrone.

estrogen synthesis = assay: in vivo inhibition of aromatase activity: inhibition of estrogen synthesis in rats (ovarian estrogen content); details: po, female rat, PMS/hCG and androstenedione treated; read-out: dose at which estrogen synthesis is inhibited
Experimental: Twenty-one-day-old female rats are injected subcutaneously with 10 IU pregnant mare serum gonadotropin (PMS). Two days later the same rats are injected subcutaneously with 30 IU human chorionic gonadrotropin (hCG). On the day following the hCG treatment the rats are injected subcutaneously with either propylene glycol (0.2 ml; […].) or with various doses of the test compound. […] Four hours after the injection of androstenedione the rats are sacrificed and their ovaries removed and trimmed free of adhering tissue and stored in pairs at -40° C. To determine the total estrogen content of the ovaries, 1.5 ml of 0.05M aqueous potassium phosphate buffer, pH 7.4, and 0.2 ml of 0.1N aqueous sodium hydroxide are added to the tissues which are then homogenized. The homogenate is extracted with 15 ml of diethyl ether, 5 ml aliquots are radioimmunoassayed with antiserum having 100% cross reactivity with estrone, estradiol and estriol. The ovarian estrogen content is expressed as ng estrogen/pair of ovaries. The inhibition of estrogen synthesis, indicative of aromatase inhibition, is calculated from the ovarian estrogen content in treated as compared to control animals.

female dogs [2] = assay: cessation of proestrus and estrus in female dogs treated from proestrus; type: in vivo, dog
Excerpt: (§1) Proestrus, for example in the bitch, commences with a vaginal discharge, followed by attraction of the male resulting from estrogen secretion and lasts on an average of 9 days. The females only permit mating during estrus. The compounds of the present invention, when administered to female dogs e.g. on the second day of proestrus, terminate all physical signs of proestrus andestrus and mating will be prevented.
(§2) For example, ten mature beagles during anestrus with known breeding histories were administered e.g. 10.0 mg/kg p.o. daily of the compound of example 46 for 224 days. […] Ten female beagles with known breeding histories were administered 10.0 mg/kg p.o. daily of the compound of example 46 for 91 days beginning on the first day proestrus was noted.

female dogs [3] = assay: prevention of proestrus and estrus in female dogs treated during anestrus; type: in vivo, dog; details: 10.0 mg/kg p.o. daily for 224 days, ten mature beagles during anestrus; controls exhibited proestrus and estrus at least once
Excerpt: as §1, §2

N#Cc1ccc(C(c2ccc(C#N)cc2)n2ccnc2)cc1 [Example 2a, 4-[alpha-(4-cyanophenyl)-1-imidazolylmethyl]-benzonitrile]
minimal effective dose [1]: ~0.1 mg/kg/day | minimal effective dose (female rats): ~4 mg/kg

N#Cc1ccc(C(c2cccnc2)n2ccnc2)cc1 (stereo not drawn) [Example 5e, 4-[alpha-(3-pyridyl)-1-imidazolylmethyl]-benzonitrile]
IC50 (aromatase): ~16 nM | minimal effective dose (estrogen synthesis): ~3 µg/kg

N#Cc1ccc(CC(c2ccc(C#N)cc2)n2ccnc2)cc1 (stereo not drawn) [Example 11f, 4-[alpha-(4-cyanobenzyl)-1-imidazolylmethyl]benzonitrile]
IC50 (aromatase): ~3 nM | minimal effective dose (estrogen synthesis): ~3 µg/kg

N#Cc1ccc(C(c2ccc(C#N)cc2)n2cncn2)cc1 [Example 20a, 4-[alpha-(4-cyanophenyl)-1-(1,2,4-triazolyl)-methyl]benzonitrile]
minimal effective dose ([1]; daily, p.o., rats, DMBA-induced mammary tumors): ~0.03 mg/kg/day

N#Cc1ccc(C(c2cccnc2)n2ccnc2)cc1 (stereo not drawn) [Example 46, sulfate salt of 4-[alpha-(3-pyridyl)-1-imidazolylmethyl]benzonitrile]
signs of proestrus (female dogs [2]; 10.0 mg/kg p.o. daily for 91 days beginning on first day of proestrus, ten female beagles): All signs of proestrus disappeared | acceptance of a male (female dogs [2]; 10.0 mg/kg p.o. daily for 91 days, ten female beagles, male presented 9 and 11 days later): no dogs accepted a male | proestrus during remainder of treatment (female dogs [2]; 10.0 mg/kg p.o. daily, remainder of the 91 days, ten female beagles): Proestrus was not observed | acceptance of a male dog (female dogs [2]; 10.0 mg/kg p.o. daily, 9 and 11 days following the initial sign of proestrus): refused to accept a male dog | dogs exhibiting estrus during recovery (female dogs [2]; 190 days recovery period after 91 days at 10.0 mg/kg p.o. daily): eight of ten dogs exhibited estrus | signs of proestrus (female dogs [3]): No signs of proestrus were observed
